Assay results published in ChEMBL document CHEMBL5579861, “Cytotoxic Peptaibols from Trichoderma guizhouense, a Fungus Isolated from an Urban Soil Sample” (J Nat Prod, 2024).
Non-standard residues stand in square brackets, D forms with d. Residues, ends and D or L forms follow the SMILES beside them. *: point of attachment. Leu(ol) = CC(C)C[C@H](N)CO; dIva = CC[C@@](C)(N)C(=O)O; Valol = CC(C)[C@@H](CO)N*; Aib = CC(C)(N)C(=O)O

Tests used:
[1] = tested on: DU-145; assay: Cytotoxicity against human DU-145 cells assessed as reduction in cell viability after 24 hrs by MTT assay; format: functional, cell-based; details: DU-145, 24 h
[2] = tested on: SK-OV-3; assay: Cytotoxicity against human SK-OV-3 cells assessed as reduction in cell viability after 24 hrs by MTT assay; format: functional, cell-based; details: SK-OV-3, 24 h
[3] = tested on: HCT-116; assay: Cytotoxicity against human HCT-116 cells assessed as reduction in cell viability after 24 hrs by MTT assay; format: functional, cell-based; details: HCT-116, 24 h
[4] = tested on: MDA-MB-231; assay: Cytotoxicity against human MDA-MB-231 cells assessed as reduction in cell viability after 24 hrs by MTT assay; format: functional, cell-based; details: MDA-MB-231, 24 h
[5] = tested on: SK-HEP1; assay: Cytotoxicity against human SK-HEP1 cells assessed as reduction in cell viability after 24 hrs by MTT assay; format: functional, cell-based; details: SK-HEP1, 24 h
[6] = Selectivity index, ratio of EC50 for cytotoxicity against human HepG2 cells to EC50 for antimalarial activity against Plasmodium falciparum Dd2; format: toxicity, cell-based; details: read-out: Ratio EC50
[7] = Cytotoxicity against human HepG2 cells assessed as reduction in cell viability after 48 hrs by MTS assay; format: toxicity, cell-based
[8] = tested on: Plasmodium falciparum; assay: Antimalarial activity against Plasmodium falciparum Dd2 assessed as reduction in parasite growth incubated for 72 hrs by SYBR Green I staining based assay; format: functional, organism-based; details: Dd2, 72 h

CC[C@H](C)[C@H](NC(=O)[C@@](C)(CC)NC(=O)[C@@H]1CCCN1C(=O)C(C)(C)NC(=O)[C@@H](NC(=O)[C@H](C)NC(=O)[C@@H]1CCCN1C(=O)C(C)(C)NC(=O)[C@H](CC(C)C)NC(=O)[C@H](CCC(N)=O)NC(=O)C(C)(C)NC(C)=O)C(C)C)C(=O)NC(C)(C)C(=O)N1CCC[C@H]1C(=O)N[C@H](CO)C(C)C
IC50 [1]: 9.3 µM
IC50 [2]: 3.8 µM
IC50 [3]: 3.5 µM
IC50 [4]: 3.9 µM
IC50 [5]: 4.6 µM

CC[C@@](C)(NC(C)=O)C(=O)N[C@@H](CCC(N)=O)C(=O)N[C@@H](CC(C)C)C(=O)NC(C)(C)C(=O)N1CCC[C@H]1C(=O)N[C@@H](C)C(=O)N[C@H](C(=O)NC(C)(C)C(=O)N1CCC[C@H]1C(=O)N[C@@H](CC(C)C)C(=O)N[C@@H](CC(C)C)C(=O)NC(C)(C)C(=O)N1CCC[C@H]1C(=O)N[C@H](CO)CC(C)C)C(C)C
IC50 [1]: 25 µM
IC50 [2]: 15 µM
IC50 [3]: 14 µM
IC50 [4]: 14 µM
IC50 [5]: 19 µM

CC[C@@](C)(NC(=O)[C@H](C)NC(=O)[C@H](C)NC(=O)C(C)(C)NC(C)=O)C(=O)N[C@](C)(CC)C(=O)N[C@@H](CCC(N)=O)C(=O)N[C@](C)(CC)C(=O)N[C@@H](CC(C)C)C(=O)NC(C)(C)C(=O)N[C@@H](C)C(=O)NC(C)(C)C(=O)NC(C)(C)C(=O)N1CCC[C@H]1C(=O)N[C@@H](CC(C)C)C(=O)NC(C)(C)C(=O)NC(C)(C)C(=O)N[C@@H](CCC(N)=O)C(=O)N[C@H](CO)C(C)C
IC50 [1]: 4.5 µM
IC50 [2]: 2.9 µM
IC50 [3]: 0.83 µM
IC50 [4]: 0.85 µM
IC50 [5]: 0.97 µM

CC[C@H](C)[C@H](NC(=O)[C@@](C)(CC)NC(=O)[C@@H]1CCCN1C(=O)C(C)(C)NC(=O)[C@@H](NC(=O)[C@H](C)NC(=O)[C@@H]1CCCN1C(=O)C(C)(C)NC(=O)[C@H](CC(C)C)NC(=O)[C@H](CCC(N)=O)NC(=O)[C@@](C)(CC)NC(C)=O)C(C)C)C(=O)NC(C)(C)C(=O)N1CCC[C@H]1C(=O)N[C@H](CO)CC(C)C
IC50 [1]: 20 µM
IC50 [2]: 9.2 µM
IC50 [3]: 4.8 µM
IC50 [4]: 5.5 µM
IC50 [5]: 8 µM

CC[C@@](C)(NC(C)=O)C(=O)N[C@@H](CCC(N)=O)C(=O)N[C@@H](CC(C)C)C(=O)NC(C)(C)C(=O)N1CCC[C@H]1C(=O)N[C@@H](C)C(=O)N[C@H](C(=O)NC(C)(C)C(=O)N1CCC[C@H]1C(=O)N[C@](C)(CC)C(=O)N[C@@H](CC(C)C)C(=O)NC(C)(C)C(=O)N1CCC[C@H]1C(=O)N[C@H](CO)CC(C)C)C(C)C
IC50 [1]: 9.2 µM
IC50 [2]: 4.3 µM
IC50 [3]: 2.7 µM
IC50 [4]: 5.9 µM
IC50 [5]: 4.3 µM

CC[C@H](C)[C@H](NC(=O)[C@@](C)(CC)NC(=O)[C@@H]1CCCN1C(=O)C(C)(C)NC(=O)[C@@H](NC(=O)[C@H](C)NC(=O)[C@@H]1CCCN1C(=O)C(C)(C)NC(=O)[C@H](CC(C)C)NC(=O)[C@H](CCC(N)=O)NC(=O)C(C)(C)NC(C)=O)C(C)C)C(=O)NC(C)(C)C(=O)N1CCC[C@H]1C(=O)N[C@H](CO)CC(C)C
IC50 [1]: 10 µM
IC50 [2]: 3.8 µM
IC50 [3]: 3 µM
IC50 [4]: 4.3 µM
IC50 [5]: 3.8 µM

CC[C@H](C)[C@H](NC(=O)C(C)(C)NC(=O)[C@@H]1CCCN1C(=O)C(C)(C)NC(=O)[C@@H](NC(=O)[C@H](C)NC(=O)[C@@H]1CCCN1C(=O)C(C)(C)NC(=O)[C@H](CC(C)C)NC(=O)[C@H](CCC(N)=O)NC(=O)[C@@](C)(CC)NC(C)=O)C(C)C)C(=O)NC(C)(C)C(=O)N1CCC[C@H]1C(=O)N[C@H](CO)CC(C)C
IC50 [1]: > 50 µM
IC50 [2]: > 50 µM
IC50 [3]: 16 µM
IC50 [4]: 20 µM
IC50 [5]: 4.8 µM

CC[C@H](C)[C@H](NC(=O)C(C)(C)NC(=O)[C@@H]1CCCN1C(=O)C(C)(C)NC(=O)[C@@H](NC(=O)[C@H](C)NC(=O)[C@@H]1CCCN1C(=O)C(C)(C)NC(=O)[C@H](CC(C)C)NC(=O)[C@H](CCC(N)=O)NC(=O)C(C)(C)NC(C)=O)C(C)C)C(=O)NC(C)(C)C(=O)N1CCC[C@H]1C(=O)N[C@H](CO)CC(C)C (Ac-[Aib]QL[Aib]PAV[Aib]P[Aib]I[Aib]P[Leu(ol)])
IC50 [1]: 36 µM
IC50 [2]: 24 µM
IC50 [3]: 16 µM
IC50 [4]: 37 µM
IC50 [5]: 31 µM

CC[C@H](C)[C@H](NC(=O)C(C)(C)NC(=O)[C@@H]1CCCN1C(=O)C(C)(C)NC(=O)[C@@H](NC(=O)[C@H](C)NC(=O)[C@@H]1CCCN1C(=O)C(C)(C)NC(=O)[C@H](CC(C)C)NC(=O)[C@H](CCC(N)=O)NC(=O)C(C)(C)NC(C)=O)C(C)C)C(=O)NC(C)(C)C(=O)N1CCC[C@H]1C(=O)N[C@H](CO)C(C)C (Ac-[Aib]QL[Aib]PAV[Aib]P[Aib]I[Aib]P-Valol)
IC50 [1]: 16 µM
IC50 [2]: 7.8 µM
IC50 [3]: 9.5 µM
IC50 [4]: 4.6 µM
IC50 [5]: 11 µM

CC[C@@](C)(NC(=O)[C@H](C)NC(=O)[C@H](CO)NC(=O)C(C)(C)NC(C)=O)C(=O)N[C@](C)(CC)C(=O)N[C@@H](CCC(N)=O)C(=O)N[C@](C)(CC)C(=O)N[C@@H](CC(C)C)C(=O)NC(C)(C)C(=O)N[C@@H](C)C(=O)NC(C)(C)C(=O)NC(C)(C)C(=O)N1CCC[C@H]1C(=O)N[C@@H](CC(C)C)C(=O)NC(C)(C)C(=O)NC(C)(C)C(=O)N[C@@H](CCC(N)=O)C(=O)N[C@H](COC(C)=O)C(C)C
IC50 [1]: 1.5 µM
IC50 [2]: 2.9 µM
IC50 [3]: 0.88 µM
IC50 [4]: 0.84 µM
IC50 [5]: 2.1 µM

CC(=O)NC(C)(C)C(=O)N[C@@H](CCC(N)=O)C(=O)N[C@@H](CC(C)C)C(=O)NC(C)(C)C(=O)N1CCC[C@H]1C(=O)N[C@@H](C)C(=O)N[C@H](C(=O)NC(C)(C)C(=O)N1CCC[C@H]1C(=O)NC(C)(C)C(=O)N[C@H](C(=O)NC(C)(C)C(=O)N1CCC[C@H]1C(=O)N[C@H](CO)CC(C)C)C(C)C)C(C)C (Ac-[Aib]QL[Aib]PAV[Aib]P[Aib]V[Aib]P[Leu(ol)])
IC50 [1]: 11 µM
IC50 [2]: 5.3 µM
IC50 [3]: 7.1 µM
IC50 [4]: 6.4 µM
IC50 [5]: 8.9 µM

CC[C@@](C)(NC(=O)[C@H](C)NC(=O)[C@H](CO)NC(=O)C(C)(C)NC(C)=O)C(=O)N[C@](C)(CC)C(=O)N[C@@H](CCC(N)=O)C(=O)N[C@](C)(CC)C(=O)N[C@@H](CC(C)C)C(=O)NC(C)(C)C(=O)N[C@@H](C)C(=O)NC(C)(C)C(=O)NC(C)(C)C(=O)N1CCC[C@H]1C(=O)N[C@@H](CC(C)C)C(=O)NC(C)(C)C(=O)NC(C)(C)C(=O)N[C@@H](CCC(N)=O)C(=O)N[C@H](CO)C(C)C
IC50 [1]: 1.4 µM
IC50 [2]: 0.91 µM
IC50 [3]: 0.71 µM
IC50 [4]: 0.68 µM
IC50 [5]: 0.91 µM

CC[C@H](C)[C@H](NC(=O)[C@H](CC(C)C)NC(=O)[C@H](CCC(N)=O)NC(=O)[C@@](C)(CC)NC(C)=O)C(=O)NC(C)(C)C(=O)N1CCC[C@H]1C(=O)N[C@](C)(CC)C(=O)N[C@@H](CC(C)C)C(=O)NC(C)(C)C(=O)N1CCC[C@H]1C(=O)N[C@H](CO)CC(C)C (Ac-[dIva]QLI[Aib]P[dIva]L[Aib]P[Leu(ol)])
selectivity ratio [6]: > 250
EC50 at 48 h [7]: > 25 µM
EC50 [8]: 0.1 µM

CC(=O)O[C@@]12CO[C@@H]1C[C@H](O)[C@@]1(C)C(=O)[C@H](O)C3=C(C)[C@@H](OC(=O)[C@H](O)[C@@H](NC(=O)OC(C)(C)C)c4ccccc4)C[C@@](O)([C@@H](OC(=O)c4ccccc4)[C@H]21)C3(C)C [DOCETAXEL ANHYDROUS]
IC50 [1]: 0.04 µM
IC50 [2]: 0.05 µM
IC50 [4]: 0.17 µM
IC50 [5]: 0.03 µM
